From US20240166693A1, “METHODS AND COMPOUNDS FOR MODULATING MYOTONIC DYSTROPY 1” (Design Therapeutics, Inc., priority 2020, published 2024)

system: Myotonic Dystrophy 1 affected patient fibroblasts (Coriell GM04602; 1600 CTG repeats); experiment: DM1 foci reduction assay (CAG10-Cy3 FISH, average foci per nucleus); type: cell-based; conditions: Homo sapiens, Fibroblast, 48 h, read-out: Foci Reduction in Fibroblast EC50, 48 h (nM)
Summary of the method: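 DM1 patient fibroblasts (GM04602, 1600 CTG) treated 48 h at 37 °C, 8-point 1:3 dilutions from 3 μM top dose; wild-type GM07492 as control. PFA-fixed, ethanol-permeabilized cells hybridized overnight with 5 nM CAG10-Cy3 probe, DAPI-counterstained, imaged at 20× in 4 fields; average foci per nucleus per well.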

Structure (SMILES)	EC50
CCN(CC)CCCC[C@H](NC(=O)[C@H](CC(C)C)NC(=O)[C@H](C)NC(=O)[C@H](Cc1ccccc1)NC(=O)c1ccc(C(C)(C)C)cc1)C(=O)N[C@@H](CO)C(=O)NCCOCCOCCOCCOCCOCCN(CCCCN=[N+]=[N-])C(=O)CCNC(=O)c1nc(NC(=O)c2cc(NC(=O)CCNC(=O)c3nc(NC(=O)CCCNC(=O)c4cc(NC(=O)c5nc(NC(=O)CCNC(=O)c6cc(NC(=O)c7nccn7C)cn6C)cn5C)cn4C)cn3C)cn2C)cn1C [Compound 189]	< 100 nM
CCN(CC)CCCC[C@H](NC(=O)[C@H](CC(C)C)NC(=O)[C@H](C)NC(=O)[C@H](Cc1ccccc1)NC(=O)c1ccc(C(C)(C)C)cc1)C(=O)N[C@@H](CO)C(=O)NCCOCCOCCOCCOCCOCCNC(=O)CCNC(=O)c1cc(NC(=O)c2nc(NC(=O)CCNC(=O)c3nc(NC(=O)CCCNC(=O)c4cc(NC(=O)c5nc(NC(=O)c6cc(NC(=O)CCNC(=O)c7nccn7C)cn6C)cn5C)cn4C)cn3C)cn2C)cn1C [Compound 285]	> 500 nM

same assay, conditions: Homo sapiens, Fibroblast; DM1 fibroblasts, 48 h treatment, 8-point dose response, 3 μM top dose; read-out: Foci Reduction in Fibroblast EC50, 48 h

Structure (SMILES)	EC50
CCCCCCNc1nc(NC2CCN(CCOCCOCCOCCOCCOCCNC(=O)CCNC(=O)c3nc(NC(=O)c4cc(NC(=O)CCNC(=O)c5nc(NC(=O)CCCNC(=O)c6cc(NC(=O)c7nc(NC(=O)CCNC(=O)c8cc(NC(=O)c9nccn9C)cn8C)cn7C)cn6C)cn5C)cn4C)cn3C)CC2)c2cc(OC)c(OC)cc2n1 [Compound 190]	> 500 nM
CCCCCCNc1nc(NC2CCN(CCOCCOCCOCCOCCOCCOCCOCCOCCOCCOCCNC(=O)CCNC(=O)c3nc(NC(=O)c4cc(NC(=O)CCNC(=O)c5nc(NC(=O)CCCNC(=O)c6cc(NC(=O)c7nc(NC(=O)CCNC(=O)c8cc(NC(=O)c9nccn9C)cn8C)cn7C)cn6C)cn5C)cn4C)cn3C)CC2)c2cc(OC)c(OC)cc2n1 [Compound 191]	> 500 nM
COc1cc2nc(N3CCCCC3)nc(NC3CCN(CCOCCOCCOCCOCCOCCNC(=O)CCNC(=O)c4nc(NC(=O)c5cc(NC(=O)CCNC(=O)c6nc(NC(=O)CCCNC(=O)c7cc(NC(=O)c8nc(NC(=O)CCNC(=O)c9cc(NC(=O)c%10nccn%10C)cn9C)cn8C)cn7C)cn6C)cn5C)cn4C)CC3)c2cc1OC [Compound 192]	> 500 nM
COc1cc2nc(N3CCCCC3)nc(NC3CCN(CCOCCOCCOCCOCCOCCOCCOCCOCCOCCOCCNC(=O)CCNC(=O)c4nc(NC(=O)c5cc(NC(=O)CCNC(=O)c6nc(NC(=O)CCCNC(=O)c7cc(NC(=O)c8nc(NC(=O)CCNC(=O)c9cc(NC(=O)c%10nccn%10C)cn9C)cn8C)cn7C)cn6C)cn5C)cn4C)CC3)c2cc1OC [Compound 193]	> 500 nM
